# Measured values taken from paper PMC10054553, “Development of the First ^18F-Labeled Radiohybrid-Based Minigastrin Derivative with High Target Affinity and Tumor Accumulation by Substitution of the Chelating Moiety” (Pharmaceutics, 2023).
# Assays:
# [1] = Lipophilicity (logD7.4), n-octanol/PBS pH 7.4; assay type: physicochemical; conditions: n-octanol/PBS pH 7.4; read-out: logD7.4
# Experimental: Cell-based experiments and determination of lipophilicity (logD7.4) were performed as previously published. A detailed description of the in vitro experiments is provided in the Supplementary Materials.
# Cell Culture. CCK-2R-expressing rat pancreatic cancer cells AR42J (CLS GmbH, Eppelheim, Germany) were cultivated in monolayers in CELLSTAR® cell culture flasks acquired from Greiner Bio-One GmbH (Frickenhausen, Germany) at 37°C in a humidified atmosphere (5% CO2) using a HERAcell 150i-Incubator (Thermo Fisher Scientific Inc., Waltham, United States). The nutrient medium RPMI 1640 medium, supplemented with 5 mM L-Gln 5 mL non-essential amino acids (100×) and 10% FCS, was used. Furthermore, a Dulbecco’s PBS solution with 0.1% EDTA (v/v) was applied to detach the cells for cell passaging. The detached cells were counted using a Neubauer hemocytometer (Paul Marienfeld, Lauda-Königshofen, Germany). In addition, all operations under sterile conditions were accomplished using a MSC-Advantage safety workbench (Thermo Fisher Scientific Inc., Waltham, United States).
# Determination of IC50. AR42J cells (2.0 × 10^5 cells/well) were seeded into 24-well plates 24 ± 2 h prior to testing using 1 mL of nutrient medium (RPMI 1640, 5 mM L-Gln, 5 mL non-essential amino acids (100×), 10% FCS). Cells were incubated at 37°C in a humidified atmosphere (5% CO2).
# After the removal of the medium, each well was washed with 500 μL PBS. For the cell-based assay, 200 μL of the nutrient medium (+5% BSA), [ 177Lu]Lu-DOTA-PP-F11N (25 μL, 0.3 pmol) as a radiolabeled reference and 25 μL of the peptide of interest in increasing concentrations (10 −10 to 10−4 M) were added to the cells in triplicate. Thereafter, the assay was incubated for 3 h at 37°C and the supernatant was collected. The cells were washed with 300 μL PBS and the collected supernatant fractions were unified.
# After lysis of the cells with NaOH (300 μL, 1 N) for 15 min, the respective wells were washed with NaOH (300 μ L, 1 N) and both fractions were unified. The radioactivity of both the supernatant and the lysed fractions were quantified using a γ-counter (PerkinElmer Inc., Waltham, United States). The obtained data were evaluated via the GraphPad PRISM software (GraphPad Software Inc., La Jolla, United States), which calculates the half-maximal inhibitory concentration (IC50) of the peptides.
# Internalization Studies. For the determination of the internalization kinetics of the various peptides, AR42J cells (3.0 × 10^5 cells/well) were seeded into polylysine-coated 24-well plates, adding 1 mL of nutrient medium. Afterwards, the cells were incubated for 24 ± 2 h at 37°C in a humidified atmosphere […]
# On the day of the experiment, the medium was removed, and each well was washed with nutrient medium (300 μL). Afterwards 200 μL of nutrient medium, 25 μL of the 177Lu-labeled peptide (0.3 pmol, n = 6) and either 25 μL of nutrient medium for internalization studies ( n = 3) or 25 μL of [natLu]Lu-DOTA-PP-F11N (10 μmol) for competition studies ( n = 3) were added. Thereafter, the assay was incubated for various time points (1, 2, 4 and 6 h) at 37°C in a humidified atmosphere (5% CO2). After incubation, the cells were put on ice for at least 1 min to stop internalization kinetics and the supernatant was collected. Then, the cells were washed with an ice-cold nutrient medium (300 μL) and both fractions were unified. […] The radioactivity of the supernatant, the acid wash and the lysed fractions were quantified using a γ-counter. […]
# [2] = system: AR42J tumor-bearing CB17-SCID mice; conditions: 24 h p.i., 100 pmol; cited from earlier work
# [3] = biological target: T1, CCK-2R (Rattus norvegicus, UniProt P30553); design: method as in earlier work; conditions: % of applied activity, 37 °C, AR42J cells, identical conditions, cited from earlier work
# T1 construct: CCK-2R-expressing rat pancreatic cancer cells AR42J; host or cells: AR42J (rat pancreatic cancer cells)
# T1 sequence (P30553 1-452): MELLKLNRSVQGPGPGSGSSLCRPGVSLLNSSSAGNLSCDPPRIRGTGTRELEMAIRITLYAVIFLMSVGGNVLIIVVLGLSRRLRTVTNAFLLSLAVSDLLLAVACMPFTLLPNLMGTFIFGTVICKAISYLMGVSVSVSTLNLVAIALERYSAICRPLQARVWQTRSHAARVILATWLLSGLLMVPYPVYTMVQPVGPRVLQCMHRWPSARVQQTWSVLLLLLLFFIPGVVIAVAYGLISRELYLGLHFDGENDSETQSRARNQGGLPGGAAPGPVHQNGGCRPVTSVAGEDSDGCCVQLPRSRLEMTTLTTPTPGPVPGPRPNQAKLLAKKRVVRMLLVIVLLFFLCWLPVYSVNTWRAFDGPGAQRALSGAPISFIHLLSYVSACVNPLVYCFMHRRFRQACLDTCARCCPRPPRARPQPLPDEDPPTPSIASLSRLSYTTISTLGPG
compound,measurement,setting,value
"CCCC[C@H](NC(=O)[C@H](Cc1c[nH]c2ccccc12)NC(=O)CNC(=O)[C@H](Cc1ccc(O)cc1)NC(=O)[C@H](C)NC(=O)[C@@H](CCC(=O)O)NC(=O)[C@@H](CCC(=O)O)NC(=O)[C@@H](CCC(=O)O)NC(=O)[C@@H](CCC(=O)O)NC(=O)[C@@H](CCC(=O)O)NC(=O)[C@@H](CCC(=O)O)NC(=O)CN1CCN(CC(=O)O)CCN(CC(=O)O)CCN(CC(=O)O)CC1)C(=O)N[C@@H](CC(=O)O)C(=O)N[C@@H](Cc1ccccc1)C(N)=O [[^177Lu]Lu-DOTA-PP-F11N, metal not drawn]",logD,[1],< -4
same,activity uptake in the tumor,[2],1.9 ± 0.8 %ID/g
same,Internalization Values (%) 1 h,[3]; 1 h,6.44 ± 0.32%
same,Internalization Values (%) 2 h,[3]; 2 h,10.1 ± 0.4%
same,Internalization Values (%) 4 h,[3]; 4 h,17.5 ± 1.0%
same,Internalization Values (%) 6 h,[3]; 6 h,22.4 ± 0.6%
